The results in this text go back to patent publication US20250000948A1, “SOLID COMPOSITIONS COMPRISING A PEPTIDE OR A PROTEIN AND AN ACYLATED AMINO ACID” (ADOCIA, priority 2021, published 2025).

Data set [1] can be described thus: Solubilization kinetics of compacts, USP <711> paddle apparatus (Example B1). In kind it is physicochemical. To be noted: 200 mM phosphate buffer pH 6.8, 37° C., 75 rpm. On the procedure:
To evaluate solubilization kinetics of NaPheC6 and NaPheC8 in similar conditions, compacts are prepared in the following manner:
In a manual tablet press (LFA TDP 0 Desktop tablet press) equipped with cylindrical 8 mm diameter punches, 200 +10 mg of permeation enhancer is filled into the die cavity. Compression into cylindrical compacts of 4±0.5 mm height yields compacts with apparent volumetric mass of 1±0.2 g/mL.
These compacts are put into a capsule sinker, then dissolved using an USP <711>-compliant apparatus (type 2-Paddle apparatus). Dissolution is done into 700 mL of 200 mM phosphate buffer, pH 6.8. Temperature is set at 37° C. and agitation at 75 rpm.
Sampling of the dissolution medium followed by HPLC dosage yields the following dissolution profiles for the compounds NaPheC6 and NaPheC8, respectively: […]

Data set [2] deals with Caco-2 monolayers. Type of data set: in vitro ADME. As to the method:
An in vitro permeability assay was conducted in order to evaluate the impact of NaPheC8 on the passage of peptides through a monolayer of intestinal epithelial cells. Caco-2 cells were seeded on a polycarbonate membrane that separate basal and apical compartments of a Transwell system and cultured for 21-days.
Insulin lispro and semaglutide formulations (100 μM) were added into the apical compartment of the culture system in presence or absence of different concentrations of NaPheC8.
In vitro absorption of peptides was estimated by quantifying insulin lispro or semaglutide in the basal compartment 1 hour after the addition of formulations (quantification by ELISA).
Peptide permeability in the presence of NaPheC8, expressed as a fold-increase compared to the treatment with the peptide alone, is reported in the table below: […]

As for `CCCCCC(=O)N[C@@H](Cc1ccccc1)C(=O)O` [NaPheC6, N-hexanoyl-Phenylalanine], the “dissolved (%)” value in data set [1] (20 seconds) is given as 47%; in data set [1] (40 seconds) it was 100%; in data set [1] (60 seconds) it was 100%; in data set [1] (80 seconds) it was 100%; in data set [1] (100 seconds) it was 100%.
As to `CCCCCCCC(=O)N[C@@H](Cc1ccccc1)C(=O)[O-].[Na+]` [NaPheC8, sodium salt of N-octanoyl phenylalanine], the “dissolved (%)” value in data set [1] (20 seconds) was found to be 15%; in data set [1] (40 seconds), 37%; in data set [1] (60 seconds) it was 57%; in data set [1] (80 seconds), 89%; in data set [1] (100 seconds), 99%. In addition, the “effect on passage of peptides through Caco-2 monolayers (in words)” value in data set [2] was “favors the passage of these peptides through Caco-2 monolayers, in a dose-dependant manner”.
